The record followed here is ChEMBL document CHEMBL3351975, “Design and synthesis of new series of coumarin-aminopyran derivatives possessing potential anti-depressant-like activity” (Bioorg Med Chem Lett, 2015).

By inhibition in vivo is commonly meant the drop in the measured response relative to a control, in per cent.

The source made the active and inactive calls. The calls are words filed in the database; no cut-off is given here.

In series [1] the test system is Mus musculus. The experiment in a line: Antidepressant-like activity in Swiss albino mouse assessed as decrease in immobility time at 0.5 mg/kg, ip measured for 5 mins by forced swimming test relative to control. Format: functional. The settings on record: route intraperitoneal.
For series [2], the system named is Mus musculus. Description: Antidepressant-like activity in Swiss albino mouse assessed as decrease in immobility time at 0.5 mg/kg, ip measured for 5 mins by tail suspension test relative to control. Format: functional, organism-based. Set-up: dose 0.5 mg/kg.
Series [3] relates to Mus musculus. Description: Antidepressant-like activity in Swiss albino mouse assessed as decrease in immobility time at 20 mg/kg, ip measured for 5 mins by forced swimming test relative to control. The format is functional. The settings on record: route intraperitoneal.
The subject of series [4] is Mus musculus. Description: Antidepressant-like activity in Swiss albino mouse assessed as decrease in immobility time at 1 mg/kg, ip measured for 5 mins by forced swimming test relative to control. The format is functional, organism-based. Set-up: dose 1 mg/kg.
The subject of series [5] is Mus musculus. Description: Neurotoxicity in Swiss albino mouse assessed as effect on locomotor activity measured as total distance travelled at 0.5 mg/kg, ip measured for 2 min at 30 min intervals for 90 mins duration by open field test relative to control. The format is toxicity, organism-based. Set-up: dose 0.5 mg/kg, route intraperitoneal. The note with it: in vivo, 1.5 h.

Series [6] has as its system Mus musculus. The experiment in a line: Neurotoxicity in Swiss albino mouse assessed as effect on locomotor activity measured as horizontal activity at 0.5 mg/kg, ip measured for 2 min at 30 min intervals for 90 mins duration by open field test relative to control. On the set-up: dose 0.5 mg/kg, route intraperitoneal. The note with it: in vivo, 1.5 h. The format is toxicity, organism-based.

Series [7] has as its system Mus musculus. Description: Neurotoxicity in Swiss albino mouse assessed as motor impairment effects at 1 mg/kg, ip measured for 30 to 180 mins duration by rotarod test relative to control. The settings on record: in vivo. Format: toxicity, organism-based. On the set-up: dose 1 mg/kg, route intraperitoneal.
Series [8] deals with Mus musculus. Description: Antidepressant-like activity in Swiss albino mouse assessed as decrease in immobility time at 0.25 mg/kg, ip measured for 5 mins by forced swimming test relative to control. The note with it: for inhibition in vivo at 0.25 mg/kg: route intraperitoneal. Format: functional.

Turning to `COc1cc(-c2cc3cc(C4C(C#N)=C(N)OC5=C4C(=O)CCC5)cc(C(C)(C)C)c3oc2=O)cc(OC)c1OC` (centres undefined), the inhibition in vivo at 0.5 mg/kg in the series on Mus musculus [1] came to 5.33%.
`COc1ccc(-c2cc3cc(C4C(C#N)=C(N)OC5=C4C(=O)CC(C)(C)C5)cc(C)c3oc2=O)cc1OC` (centres undefined): the inhibition in vivo at 0.5 mg/kg in the series on Mus musculus [1] turned out to be 10.4%.
With `CNCCC(Oc1ccc(C(F)(F)F)cc1)c1ccccc1` (centres undefined) [FLUOXETINE], in the series with Mus musculus [2], the outcome was Active. Besides, in the series with Mus musculus [3], the inhibition in vivo at 20 mg/kg turned out to be 69.8%.
As to `COc1ccc(-c2cc3cc(C4C(C#N)=C(N)OC5=C4C(=O)CCC5)cc(C(C)(C)C)c3oc2=O)cc1` (centres undefined), in the series on Mus musculus [1], the inhibition in vivo at 0.5 mg/kg amounted to 30.6%. Also, the result with Mus musculus [4] was Active.
As for `COc1cc(-c2cc3cc(C4C(C#N)=C(N)OC5=C4C(=O)CC(C)(C)C5)cc(C(C)(C)C)c3oc2=O)cc(OC)c1OC` (centres undefined), in the series with Mus musculus [1], the inhibition in vivo at 0.5 mg/kg was 30.1%.
As to `COc1ccc(-c2cc3cc(C4C(C#N)=C(N)OC5=C4C(=O)CC(C)(C)C5)cc(C(C)C)c3oc2=O)cc1` (centres undefined), the inhibition in vivo at 0.5 mg/kg with Mus musculus [1] is 64.9%. For the same molecule, the outcome in the series on Mus musculus [4] and with Mus musculus [2] was Active. Besides, the Activity result in the series on Mus musculus [5], with Mus musculus [6] and with Mus musculus [7] was “Non-toxic” throughout. The inhibition entry with Mus musculus [8] was “inactive”.
With `COc1ccc(-c2cc3cc(C4C(C#N)=C(N)OC5=C4C(=O)CCC5)cc(C(C)C)c3oc2=O)cc1OC` (centres undefined), in the series with Mus musculus [1], the inhibition in vivo at 0.5 mg/kg came out at 57.2%. For the same molecule, the result in the series with Mus musculus [4] and with Mus musculus [2] was Active. Besides, the Activity entry in the series on Mus musculus [5], with Mus musculus [6] and in the series with Mus musculus [7] was “Non-toxic” in each case. Moreover, in the series with Mus musculus [8], the inhibition in vivo at 0.25 mg/kg amounted to 49%.
`COc1ccc(-c2cc3cc(C4C(C#N)=C(N)OC5=C4C(=O)CC(C)(C)C5)cc(C(C)C)c3oc2=O)cc1OC` (centres undefined): the inhibition in vivo at 0.5 mg/kg with Mus musculus [1] is 86.6%. The result in the series with Mus musculus [4] and in the series on Mus musculus [2] was Active. Further, the Activity entry with Mus musculus [5], in the series on Mus musculus [6] and with Mus musculus [7] was “Non-toxic” throughout. Besides, the inhibition in vivo at 0.25 mg/kg in the series on Mus musculus [8] was 41%.
On to `COc1cc(-c2cc3cc(C4C(C#N)=C(N)OC5=C4C(=O)CC(C)(C)C5)cc(C)c3oc2=O)cc(OC)c1OC` (centres undefined), for which the inhibition in vivo at 0.5 mg/kg in the series with Mus musculus [1] is 6.37%.
Take `CCC(C)c1cc(C2C(C#N)=C(N)OC3=C2C(=O)CC(C)(C)C3)cc2cc(-c3ccc(OC)cc3)c(=O)oc12` (centres undefined): in the series with Mus musculus [1], the inhibition in vivo at 0.5 mg/kg worked out at 26.9%. Also, the result in the series with Mus musculus [4] was Active.
Consider `COc1ccc(-c2cc3cc(C4C(C#N)=C(N)OC5=C4C(=O)CC(C)(C)C5)cc(C(C)(C)C)c3oc2=O)cc1OC` (centres undefined), for which the inhibition in vivo at 0.5 mg/kg in the series with Mus musculus [1] amounted to 22.5%.
Consider `CN(C)CCCN1c2ccccc2CCc2ccccc21`, for which, in the series with Mus musculus [2], the outcome was Active.
Consider `CCC(C)c1cc(C2C(C#N)=C(N)OC3=C2C(=O)CCC3)cc2cc(-c3cc(OC)c(OC)c(OC)c3)c(=O)oc12` (centres undefined), for which the inhibition in vivo at 0.5 mg/kg with Mus musculus [1] came to 56.1%. The outcome in the series on Mus musculus [4] and in the series with Mus musculus [2] was Active. For the same molecule, the Activity entry in the series on Mus musculus [5], in the series on Mus musculus [6] and in the series on Mus musculus [7] was “Non-toxic” throughout. The inhibition result in the series with Mus musculus [8] is “inactive”.
For `COc1ccc(-c2cc3cc(C4C(C#N)=C(N)OC5=C4C(=O)CCC5)cc(C(C)C)c3oc2=O)cc1` (centres undefined), the inhibition in vivo at 0.5 mg/kg in the series with Mus musculus [1] turned out to be 69.7%. For the same molecule, the outcome with Mus musculus [4] and in the series with Mus musculus [2] was Active. Further, the Activity result with Mus musculus [5], in the series with Mus musculus [6] and with Mus musculus [7] was “Non-toxic” in each case. Moreover, in the series with Mus musculus [8], the inhibition result was “inactive”.
In the case of `COc1cc(-c2cc3cc(C4C(C#N)=C(N)OC5=C4C(=O)CCC5)cc(C(C)C)c3oc2=O)cc(OC)c1OC` (centres undefined), the inhibition in vivo at 0.5 mg/kg with Mus musculus [1] is 31.9%.
As to `CCC(C)c1cc(C2C(C#N)=C(N)OC3=C2C(=O)CC(C)(C)C3)cc2cc(-c3ccc(OC)c(OC)c3)c(=O)oc12` (centres undefined), in the series on Mus musculus [1], the inhibition in vivo at 0.5 mg/kg was found to be 57.4%. The result in the series with Mus musculus [4] and in the series with Mus musculus [2] was Active. For the same molecule, the Activity result with Mus musculus [5], in the series with Mus musculus [6] and with Mus musculus [7] was “Non-toxic” throughout. Moreover, the inhibition in vivo at 0.25 mg/kg in the series on Mus musculus [8] worked out at 35%.
In the case of `COc1ccc(-c2cc3cc(C4C(C#N)=C(N)OC5=C4C(=O)CC(C)(C)C5)cc(C(C)(C)C)c3oc2=O)cc1` (centres undefined), the inhibition in vivo at 0.5 mg/kg in the series on Mus musculus [1] amounted to 27.2%.
Consider `COc1cc(-c2cc3cc(C4C(C#N)=C(N)OC5=C4C(=O)CC(C)(C)C5)cc(C(C)C)c3oc2=O)cc(OC)c1OC` (centres undefined), for which the inhibition in vivo at 0.5 mg/kg with Mus musculus [1] came out at 29.2%. Moreover, the result in the series with Mus musculus [4] was Active.
With `CCC(C)c1cc(C2C(C#N)=C(N)OC3=C2C(=O)CC(C)(C)C3)cc2cc(-c3cc(OC)c(OC)c(OC)c3)c(=O)oc12` (centres undefined), in the series on Mus musculus [1], the inhibition in vivo at 0.5 mg/kg turned out to be 28.2%. Also, in the series with Mus musculus [4], the outcome was Active.
Taken in the same sequence, the figures for `CCC(C)c1cc(C2C(C#N)=C(N)OC3=C2C(=O)CCC3)cc2cc(-c3ccc(OC)cc3)c(=O)oc12` (centres undefined) were 35% and “Active”.
In the case of `COc1ccc(-c2cc3cc(C4C(C#N)=C(N)OC5=C4C(=O)CCC5)cc(C(C)(C)C)c3oc2=O)cc1OC` (centres undefined), in the series on Mus musculus [1], the inhibition in vivo at 0.5 mg/kg was -16.6%.
As for `COc1cc(-c2cc3cc(C4C(C#N)=C(N)OC5=C4C(=O)CCC5)cc(C)c3oc2=O)cc(OC)c1OC` (centres undefined), the inhibition in vivo at 0.5 mg/kg in the series with Mus musculus [1] amounted to 5.22%.
